Laboratory results reported in patent publication US20100075973A1, “POLO-LIKE KINASE INHIBITORS” (TAKEDA PHARMACEUTICAL COMPANY LIMITED, priority 2008, published 2010).
“And” between values parts separate entries of the source, which are not always exact repeats. Equal values may be shown once.

Legend:
human PLK1 = target: T1, human PLK1 (Homo sapiens, UniProt P53350); assay: In vitro enzymatic assay: phosphorylation of alpha casein by recombinant PLK1 (Example A); assay type: biochemical; conditions: recombinant FLAG-tagged PLK1, alpha casein substrate, 500 nmol/L ATP, [γ-32P]ATP, room temperature 40 min; read-out: pIC50 PLK1 (converted)
T1 construct: made in house; host or cells: Sf21 insect cells, recombinant baculovirus (pFASTBAC1, Bac-to-Bac)
T1 sequence (P53350 whole entry): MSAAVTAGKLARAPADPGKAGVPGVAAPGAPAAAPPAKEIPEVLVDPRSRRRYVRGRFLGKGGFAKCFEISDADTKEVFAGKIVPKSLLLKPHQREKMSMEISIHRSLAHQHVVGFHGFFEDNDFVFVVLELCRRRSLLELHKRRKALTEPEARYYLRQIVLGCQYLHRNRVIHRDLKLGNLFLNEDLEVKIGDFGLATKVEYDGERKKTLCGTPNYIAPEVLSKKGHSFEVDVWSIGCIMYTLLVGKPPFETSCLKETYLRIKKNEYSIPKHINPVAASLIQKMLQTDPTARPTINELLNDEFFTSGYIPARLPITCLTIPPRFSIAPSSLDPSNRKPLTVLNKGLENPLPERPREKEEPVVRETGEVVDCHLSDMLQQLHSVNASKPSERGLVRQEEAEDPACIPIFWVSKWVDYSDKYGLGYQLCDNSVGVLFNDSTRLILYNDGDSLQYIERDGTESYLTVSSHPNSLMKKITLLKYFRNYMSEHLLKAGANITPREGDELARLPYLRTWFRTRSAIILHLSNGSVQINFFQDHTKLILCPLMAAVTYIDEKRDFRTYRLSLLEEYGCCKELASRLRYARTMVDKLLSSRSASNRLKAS
Procedure: Purified PLK1 may be obtained as follows. cDNA encoding human PLK1 SEQ ID No. 1, Accession Number: NM_005030 was isolated by polymerase chain reaction PCR with primers SEQ ID Nos. 2 and 3 and cloned into pcDNA4/His-Max-TOPO Invitrogen, USA according to the manufacturer's manual. PCR was performed using the vector as a template. In the PCR, primers containing sequences encoding a FLAG-tag DYKDDDDK in the amino-terminal region SEQ ID No. 4 and vector sequence SEQ ID No. 5 were used. After XbaI and XhoI digestion of the PCR product, the fragment was subcloned into pFASTBAC1 Invitrogen, USA. Recombinant baculoviruses were prepared according to the procedure of the Bac-to-Bac baculovirus expression system Invitrogen, USA. Sf21 cells were purchased from Invitrogen and grown in Sf-900 II SFM medium containing 10% fetal bovine serum, 50 gentamicin and 0.1% pluronic F-68 Invitrogen, USA at 28° C. For preparation of PLK1 enzyme, Sf21 cells were infected with recombinant baculoviruses and cultured at 28° C. for 72 h. Cells were lysed and FLAG-tagged PLK1 protein SEQ ID No. 6 was purified by affinity chromatography using anti-FLAG M2 affinity gel Sigma, USA.
The inhibition of PLK1 by the compounds was determined with the following assay that measures the phosphorylation of alpha casein by recombinant PLK1. Kinase reactions were performed at room temperature for 40 min in the kinase reaction buffer 25 mmol/L HEPES, pH 7.5, 10 mmol/L magnesium acetate, 1 mmol/L dithiothreitol containing 50 ng PLK1 enzyme, 0.1 μCi [γ-^32P]ATP, 500 nmol/L ATP and 3 μg alpha casein MP Biomedicals Inc., USA in a final volume of 50 μL. The incubation was terminated by the addition of 10% trichloroacetic acid Wako, Japan. Phosphorylated proteins were filtrated in GF/C filter plates Packard, USA with a Cell harvester Packard, USA and washed out free [γ-^32P]-ATP with 250 mmol/L phosphoric acid. Then, the plates were air dried for 60 min at 45° C., followed by the addition of 20 μL of MicroScint-O Packard, USA. The radioactivity was counted by a Top-count scintillation counter Packard, USA. The IC50 values for test compounds were calculated by Prism 3.02 GraphPad Software, USA.
pIC50 values are the negative of the log of the IC50s and may be calculated by non-linear curve fitting of the compound concentrations and fluorescence intensities to the standard pIC50 equation.

Compound | melting point | IC50 (human PLK1) [nM]
CC[C@@H]1c2c(C#N)ncn2-c2cnc(Nc3cc(F)c(C(=O)N[C@H]4CC[C@H](N5CCN(CC6CC6)CC5)CC4)cc3OC)nc2N1C(C)C [Example 1] | 251 to 255 °C and 250 to 254 °C | 
CC[C@@H]1c2c(C#N)ncn2-c2cnc(Nc3ccc(C(=O)NC4CCC(N5CCN(C)CC5)CC4)cc3OC)nc2N1C1CCCC1 (some centres unmarked) [Example 2] | 187 to 192 °C | 
CC[C@@H]1c2c(C#N)ncn2-c2cnc(Nc3ccc(C(=O)NC4CCC(N5CCN(CC)CC5)CC4)cc3OC)nc2N1C1CCCC1 (some centres unmarked) [Example 3] | 170 to 173 °C | 
CC[C@@H]1c2c(C#N)ncn2-c2cnc(Nc3ccc(C(=O)NC4CCC(N5CCN(C(C)C)CC5)CC4)cc3OC)nc2N1C1CCCC1 (some centres unmarked) [Example 4] | 216 to 220 °C | 
CC[C@@H]1c2c(C#N)ncn2-c2cnc(Nc3ccc(C(=O)N[C@H]4CC[C@H](N5CCN(CC6CC6)CC5)CC4)cc3OC)nc2N1C1CCCC1 [Example 5] | 186 to 190 °C | 
CC[C@@H]1c2c(C#N)ncn2-c2cnc(Nc3cc(F)c(C(=O)NC4CCC(N5CCN(C)CC5)CC4)cc3OC)nc2N1C1CCCC1 (some centres unmarked) [Example 6] | > 205 °C | 
CC[C@@H]1c2c(C#N)ncn2-c2cnc(Nc3cc(F)c(C(=O)NC4CCC(N5CCN(CC(C)C)CC5)CC4)cc3OC)nc2N1C1CCCC1 (some centres unmarked) [Example 8] | 155 to 158 °C | 
CC[C@@H]1c2c(C#N)ncn2-c2cnc(Nc3ccc(C(=O)NC4CCC(N5CCN(C)CC5)CC4)cc3OC)nc2N1C(C)C (some centres unmarked) [Example 9] | 195 to 198 °C | 
CC[C@@H]1c2c(C#N)ncn2-c2cnc(Nc3ccc(C(=O)NC4CCC(N5CCN(CC6CC6)CC5)CC4)cc3OC)nc2N1C(C)C (some centres unmarked) [Example 11] | 198 to 204 °C | 
CC[C@@H]1c2c(C#N)ncn2-c2cnc(Nc3ccc(C(=O)NC4CCC(N5CCN(CC(C)C)CC5)CC4)cc3OC)nc2N1C(C)C (some centres unmarked) [Example 12] | 165 to 170 °C | 
CC[C@@H]1c2c(C#N)ncn2-c2cnc(Nc3cc(F)c(C(=O)NC4CCC(N5CCN(CC(C)C)CC5)CC4)cc3OC)nc2N1C(C)C (some centres unmarked) [Example 18] | 219 to 222 °C | 
CC[C@@H]1c2c(C#N)ncn2-c2cnc(Nc3ccc(C(=O)NC4CCN(C5CCN(CC)CC5)CC4)cc3OC)nc2N1C(C)C [Example 19, (R)-4-(7-Cyano-6-ethyl-5-isopropyl-5,6-dihydroimidazo[1,5-f]pteridin-3-ylamino)-N-(1′-ethyl-1,4′-bipiperidin-4-yl)-3-methoxybenzamide] |  | 2
CC[C@@H]1c2c(C#N)ncn2-c2cnc(Nc3cc(F)c(C(=O)NC4CCN(C5CCN(CC)CC5)CC4)cc3OC)nc2N1C(C)C [Example 20, (R)-4-(7-Cyano-6-ethyl-5-isopropyl-5,6-dihydroimidazo[1,5-f]pteridin-3-ylamino)-N-(1′-ethyl-1,4′-bipiperidin-4-yl)-2-fluoro-5-methoxybenzamide] |  | 3.98
CC[C@@H]1c2c(C#N)ncn2-c2cnc(Nc3ccc(C(=O)NC4CCN(C5CCN(CC6CC6)CC5)CC4)cc3OC)nc2N1C(C)C [Example 21, (R)-4-(7-Cyano-6-ethyl-5-isopropyl-5,6-dihydroimidazo[1,5-f]pteridin-3-ylamino)-N-(1′-(cyclopropylmethyl)-1,4′-bipiperidin-4-yl)-3-methoxybenzamide] |  | 3.16
CC[C@@H]1c2c(C#N)ncn2-c2cnc(Nc3cc(F)c(C(=O)NC4CCN(C5CCN(CC6CC6)CC5)CC4)cc3OC)nc2N1C(C)C [Example 22, (R)-4-(7-Cyano-6-ethyl-5-isopropyl-5,6-dihydroimidazo[1,5-f]pteridin-3-ylamino)-N-(1′-(cyclopropylmethyl)-1,4′-bipiperidin-4-yl)-2-fluoro-5-methoxybenzamide] |  | 3.98
CC[C@@H]1c2c(C#N)ncn2-c2cnc(Nc3ccc(C(=O)NC4CCN(C5CCN(CC(C)C)CC5)CC4)cc3OC)nc2N1C(C)C [Example 23, (R)-4-(7-Cyano-6-ethyl-5-isopropyl-5,6-dihydroimidazo[1,5-f]pteridin-3-ylamino)-N-(1′-isobutyl-1,4′-bipiperidin-4-yl)-3-methoxybenzamide] | 165 to 170 °C | 
CC[C@@H]1c2c(C#N)ncn2-c2cnc(Nc3ccc(C(=O)NC4CCN(C5CCN(CC6CC6)CC5)CC4)cc3OC)nc2N1C1CCCC1 [Example 26, (R)-4-(7-Cyano-5-cyclopentyl-6-ethyl-5,6-dihydroimidazo[1,5-f]pteridin-3-ylamino)-N-(1′-(cyclopropylmethyl)-1,4′-bipiperidin-4-yl)-3-methoxybenzamide] |  | 1
CC[C@@H]1c2c(C#N)ncn2-c2cnc(Nc3ccc(C(=O)NC4CCN(C5CCN(CC(C)C)CC5)CC4)cc3OC)nc2N1C1CCCC1 [Example 27, (R)-4-(7-Cyano-5-cyclopentyl-6-ethyl-5,6-dihydroimidazo[1,5-f]pteridin-3-ylamino)-N-(1′-isobutyl-1,4′-bipiperidin-4-yl)-3-methoxybenzamide] |  | 2
CC[C@@H]1c2c(C#N)ncn2-c2cnc(Nc3cc(F)c(C(=O)NC4CCN(C5CCN(CC(C)C)CC5)CC4)cc3OC)nc2N1C1CCCC1 [Example 29, (R)-4-(7-Cyano-5-cyclopentyl-6-ethyl-5,6-dihydroimidazo[1,5-f]pteridin-3-ylamino)-2-fluoro-N-(1′-isobutyl-1,4′-bipiperidin-4-yl)-5-methoxybenzamide] |  | 1.26
CC[C@@H]1c2c(C#N)ncn2-c2cnc(Nc3cc(F)c(C(=O)Nc4cccc(CN5CCN(C)CC5)c4)cc3OC)nc2N1C(C)C [Example 31, (R)-4-(7-Cyano-6-ethyl-5-isopropyl-5,6-dihydroimidazo[1,5-f]pteridin-3-ylamino)-2-fluoro-5-methoxy-N-(3-((4-methylpiperazin-1-yl)methyl)phenyl)benzamide] |  | 10
CC[C@@H]1c2c(C#N)ncn2-c2cnc(Nc3ccc(C(=O)NC4CN(C5CCN(CC6CC6)CC5)C4)cc3OC)nc2N1C(C)C [Example 37, (R)-4-(7-Cyano-6-ethyl-5-isopropyl-5,6-dihydroimidazo[1,5-f]pteridin-3-ylamino)-N-(1-(1-(cyclopropylmethyl)piperidin-4-yl)azetidin-3-yl)-3-methoxybenzamide] |  | 3.16
CC[C@@H]1c2c(C#N)ncn2-c2cnc(Nc3cc(F)c(C(=O)NC4CN(C5CCN(CC6CC6)CC5)C4)cc3OC)nc2N1C(C)C [Example 38, (R)-4-(7-Cyano-6-ethyl-5-isopropyl-5,6-dihydroimidazo[1,5-f]pteridin-3-ylamino)-N-(1-(1-(cyclopropylmethyl)piperidin-4-yl)azetidin-3-yl)-2-fluoro-5-methoxybenzamide] |  | 3.16
CC[C@@H]1c2c(C#N)ncn2-c2cnc(Nc3ccc(C(=O)N[C@H]4CC[C@H](N5CCN(CC6CC6)CC5)CC4)c(F)c3)nc2N1C(C)C [Example 45] | 219 to 222 °C | 
